c1ccc2cc3ccccc3cc2c1
Conditions	solubility (mole fraction)
in DMAc, 293.15 K	0.0083
in DMAc, 298.85 K	0.0113
in DMAc, 303.85 K	0.0142
in DMAc, 308.75 K	0.0159
in DMAc, 313.95 K	0.0185
in DMAc, 319.75 K	0.0215
in DMAc, 324.25 K	0.025
in DMAc, 328.05 K	0.0269
in DMAc, 332.2 K	0.0301
in DMAc, 333.15 K	0.029
in DMAc, 339.35 K	0.0338
in DMAc, 344.95 K	0.0393
in DMAc, 348.45 K	0.0432
in DMAc, 350.3 K	0.0502
in DMAc, 354.55 K	0.0485
in DMAc, 359.25 K	0.0564
in DMF, 293.35 K	0.0042
in DMF, 298.45 K	0.0054
in DMF, 303 K	0.0057
in DMF, 303.15 K	0.0068
in DMF, 308 K	0.0072
in DMF, 308.45 K	0.0086
in DMF, 312.8 K	0.0101
in DMF, 313.21 K	0.0114
in DMF, 313.65 K	0.0104
in DMF, 317.4 K	0.011
in DMF, 318.15 K	0.0127
in DMF, 318.85 K	0.0131
in DMF, 322.8 K	0.0139
in DMF, 323.25 K	0.015
in DMF, 326.28 K	0.0166
in DMF, 329.15 K	0.018
in DMF, 333.15 K	0.0191
in DMF, 334.55 K	0.0211
in DMF, 334.9 K	0.0221
in DMF, 339.75 K	0.0252
in DMF, 345.05 K	0.0292
in DMF, 348.29 K	0.032
in DMF, 349.85 K	0.0336
in DMF, 353.55 K	0.0384
in DMF, 358.85 K	0.0448
in DMF, 359.48 K	0.0452
in NMP, 293.45 K	0.0152
in NMP, 299.15 K	0.0186
in NMP, 303.45 K	0.0217
in NMP, 308.55 K	0.0255
in NMP, 314.05 K	0.0325
in NMP, 317.84 K	0.043
in NMP, 318.15 K	0.0409
in NMP, 324.75 K	0.0455
in NMP, 331.21 K	0.0546
in NMP, 331.25 K	0.0539
in NMP, 335.25 K	0.0591
in NMP, 339.75 K	0.0653
in NMP, 344.55 K	0.0738
in NMP, 349.85 K	0.0804
in NMP, 350.45 K	0.0825
in NMP, 353.55 K	0.0884
